Results from US4096252A, “4-Trifluoromethylbenzoic acid derivatives as thromboembolic agents” (priority 1976, dated 1978).
Read-outs that look alike come from different tables or passages of the source.

Key:
rat platelet aggregation = experiment: In vitro inhibition of rat platelet aggregation (Born and Cross method); format: cell-based; details: Rattus norvegicus, Platelet, rat plasma, read-out: Platelet Aggregation Inhibition (PAI); for inhibition at 8300 µM: plasma concentration 8.30×10^-3 molar
Method: Platelet aggregation was measured according to the method of Born and Cross (8) by using rat and human plasma.

[1] = tested on: human platelet aggregation; experiment: In vitro inhibition of human platelet aggregation (Born and Cross method); format: cell-based; details: read-out: Platelet Aggregation Inhibition (PAI); for inhibition at 8300 µM: plasma concentration 8.30×10^-3 molar
Method: Platelet aggregation was measured according to the method of Born and Cross (8) by using rat and human plasma. The results are summarized below in Tables I and II.
Key : PC = Plasma Concentration: PAI = Platelet Aggregation
*The percent of inhibition was calculated using the method described by
McKenzie (Proc. Soc. Exp. Biol. Med. 137: 662, 1971).

gastric mucosa = details: rat, in vivo
Method: For this reason this compound has not been included in further in vivo experimentation. However, the other two compounds were well tolerated and satisfactory low acute toxicity values were found (approximately 500 mg/kg for both substances).

Structure (SMILES): O=C(O)c1ccc(C(F)(F)F)cc1O [2-hydroxy-4-trifluoromethylbenzoic acid]
- inhibition at 6250 µM (rat platelet aggregation; ADP 4.1×10^-6 M, plasma concentration 6.25×10^-3 molar): 60.2%
- inhibition at 8300 µM (rat platelet aggregation; ADP 4.1×10^-6 M): 89.2%
- inhibition at 4150 µM (rat platelet aggregation; Collagen 33.3 μg/ml, plasma concentration 4.15×10^-3 molar): 27.2%
- inhibition at 8300 µM (rat platelet aggregation; Collagen 33.3 μg/ml): 48.3%
- inhibition at 6250 µM ([1]; ADP 1.6×10^-6 M, plasma concentration 6.25×10^-3 molar): 70%
- inhibition at 8300 µM ([1]; ADP 1.6×10^-6 M): 100%
- inhibition at 8300 µM ([1]; Collagen 33.3 mcg/ml): 58%
- inhibition at 17000 µM ([1]; Collagen 33.3 mcg/ml, plasma concentration 17.0×10^-3 molar): 75%
- inhibition at 3300 µM ([1]; Epinephrine 1.4×10^-6 M, plasma concentration 3.30×10^-3 molar): 32%
- inhibition at 8100 µM ([1]; Epinephrine 1.4×10^-6 M, plasma concentration 8.10×10^-3 molar): 91%
- gastro-intestinal disturbances (in words) (gastric mucosa): high incidence of serious gastro-intestinal disturbances, including bleeding of the gastric mucosa and peptic ulcers
